The values that follow come from publication PMC6562422, “Huzhangoside A Suppresses Tumor Growth through Inhibition of Pyruvate Dehydrogenase Kinase Activity” (Cancers, 2019).

Molecules are shown by their SMILES.

Data set [1] has as its system HT-29 cells. As to the kind of experiment: MTT cell viability assay. To be noted: 3 μM, 24 h. The class given is cell-based, human.
In data set [2] the test system is MDA-MB-231 cells. As to the kind of experiment: MTT cell viability assay. The class given is cell-based, human. To be noted: 3 μM, 24 h.
The subject of data set [3] is DLD-1 cells. Briefly: MTT cell viability assay. The class given is cell-based, human. As to the method:
(§1) The cytotoxic effect of Hu.A was confirmed using a MTT assay. Briefly, DLD-1 cells (10^5 cells per well) were seeded in a 24-well plate and incubated overnight. The cells were then shifted to serum-free media and treated with Hu.A. MTT solution (2 mg/mL) was then added to the cells. The absorbance of formazan crystals formed were measured using a Spectramax M2 microplate reader (Molecular Devices, Sunnyvale, CA, USA) at 540 nm.

For data set [4], the system named is LLC cells. Briefly: MTT cell viability assay. The class given is cell-based, murine. To be noted: 3 μM, 24 h, serum free medium. As to the method: as §1
Supplementary materials Huzhangoside A Suppresses Tumor
Growth through Inhibition of Pyruvate
Dehydrogenase Kinase Activity
Choong-Hwan Kwak, Jung-Hee Lee, Eun-Yeong Kim, Chang Woo Han, Keuk-Jun Kim, Hanna Lee, MyoungLae Cho, Se Bok Jang, Cheorl-Ho Kim, Tae-Wook Chung and Ki-Tae Ha
Figure S1. Hu.A inhibited cell viability and phosphorylation of PDHA in LLC cells. (A) The LLC cells were treated with indicated concentrations of Hu.A in serum free medium for 24 h and MTT assay was performed. The data was indicated as mean ± SD. * p < 0.05 and *** p < 0.001 compared with the control. (B) In serum free condition, the LLC cells were treated with indicated concentrations of Hu.A for 4 h. The levels of phosphor-PDHA and total PDHA were analyzed by Western blotting assay. (C) Schematic diagram of the mechanisms of Hu.A-mediated apoptosis was shown. The red circle and white P indicated phosphates. […]

For data set [5], the system named is Hep3B cells. Briefly: MTT cell viability assay. To be noted: 3 μM, 24 h. The class given is cell-based, human.
The subject of data set [6] is LLC cell allograft. Briefly: LLC tumor allograft in C57BL/6 mice. The class given is in vivo. As to the method: LLC cells (5 × 10^5 cells/100 μL PBS) were injected into the dorsal subcutaneous skin of C57BL/6 mice (n = 8 mice per group). The control (untreated) group and Hu.A-treated groups were administered 0 mg/kg and 0.1 mg/kg, 0.5 mg/kg, and 1 mg/kg of Hu.A in 100 μL PBS/20 g via intraperitoneal (i.p.) injection for 14 days, respectively. The mice were killed 14 days after inoculation of LLC cells and the tumors were seceded from the mice and analyzed. The volumes of LLC cell derived-tumors were calculated using the formula ((length × width^2)/2).
For immunohistochemical analysis, the tumor tissues were fixed with 3.7% formalin in PBS and embedded in paraffin. The paraffin sections were incubated with a primary antibody against the Ki-67, a cell proliferation marker, and visualized via Dako EnVision kit (Dako, Jena, Germany). The sections were counterstained with hematoxylin.

Data set [7] deals with HSC-4. Set-up: method as in PMID 19952458. Conditions: read-out: IC50 against human cancer cell line; cited from earlier work.
For data set [8], the target named is T1, PDHK and PDC E2 subunit (Homo sapiens, UniProt Q15118).
T1 construct: expressed in transfected cells; host or cells: HEK293T (GST-PDHK1 transfected; E2 endogenous from HEK293T whole cell lysate)
T1 sequence (Q15118 29-436): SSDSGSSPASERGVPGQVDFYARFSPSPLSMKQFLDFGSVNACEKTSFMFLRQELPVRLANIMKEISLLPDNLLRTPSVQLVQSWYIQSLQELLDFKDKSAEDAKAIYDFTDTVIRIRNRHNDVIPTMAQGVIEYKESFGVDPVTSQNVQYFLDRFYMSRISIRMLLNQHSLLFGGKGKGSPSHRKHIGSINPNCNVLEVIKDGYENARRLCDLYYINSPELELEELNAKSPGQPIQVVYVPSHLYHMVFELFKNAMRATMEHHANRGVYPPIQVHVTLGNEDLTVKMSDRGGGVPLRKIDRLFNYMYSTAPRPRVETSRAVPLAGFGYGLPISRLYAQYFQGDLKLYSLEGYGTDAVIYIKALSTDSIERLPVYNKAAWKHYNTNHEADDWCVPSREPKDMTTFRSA
T1 sequence (P10515 87-647 partner): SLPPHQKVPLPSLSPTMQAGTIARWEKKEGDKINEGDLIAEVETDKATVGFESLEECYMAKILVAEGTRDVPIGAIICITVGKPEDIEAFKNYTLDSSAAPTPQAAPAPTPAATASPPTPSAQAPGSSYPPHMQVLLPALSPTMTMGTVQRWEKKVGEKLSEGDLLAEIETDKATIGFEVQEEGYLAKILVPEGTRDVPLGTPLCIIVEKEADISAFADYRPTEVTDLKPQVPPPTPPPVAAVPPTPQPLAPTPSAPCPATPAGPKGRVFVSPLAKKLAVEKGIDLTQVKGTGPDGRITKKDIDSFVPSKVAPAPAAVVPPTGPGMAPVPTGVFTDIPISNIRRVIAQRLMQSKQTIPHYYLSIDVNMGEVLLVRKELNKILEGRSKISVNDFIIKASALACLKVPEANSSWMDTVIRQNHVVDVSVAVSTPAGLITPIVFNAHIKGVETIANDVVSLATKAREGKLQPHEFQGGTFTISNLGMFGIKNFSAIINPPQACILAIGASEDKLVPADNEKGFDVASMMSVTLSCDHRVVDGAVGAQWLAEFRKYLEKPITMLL
As to the kind of experiment: PDC subunits and PDHK binding assay. To be noted: 500 μM Hu.A, GST-PDHK1 pull-down, HEK293T lysate. As to the method: HEK293T cells, transfected with GST-PDHK1 construct, were lysed and incubated with Glutathione Sepharose 4B beads. The beads were washed and HEK293T whole cell lysate was added with/without 500 μM of Hu.A and the samples were analyzed by western blot analysis.

Data set [9] can be described thus: Blood biochemistry of tumor-bearing mice. Conditions: serum; for Creatinine: below limit of detection; for BUN: mean ± SD (control 8.6 ± 0.8); for ALT: mean ± SD (control 14.8 ± 2.5); for AST: mean ± SD (control 79.8 ± 35.3). The class given is in vivo, C57BL/6 mice. Here is the method: The blood sera were collected from the retro-orbital plexus of tumor-bearing mice treated with Hu.A. The levels of AST, ALT, BUN, and creatinine were analyzed by a commercial service provided by Green Cross Co. (Yongin, Korea).

Data set [10] concerns the target T2, GST-PDHK1 (Homo sapiens, UniProt Q15118).
T2 construct: expressed in transfected cells; host or cells: HEK293T
As to the kind of experiment: In vitro PDHK kinase assay (GST-PDHK1, recombinant PDHA, western blot). The class given is biochemical. To be noted: phosphorylation of recombinant PDHA by western blot. Here is the method: The kinase assay of PDHK1 was carried out as described previously. Briefly, HEK293T cells, transfected with GST-PDHK1 construct, were lysed, and the lysate was incubated with Glutathione Sepharose 4B beads (Amersham Biosciences, Uppsala, Sweden). The beads were washed and recombinant PDHA was added and incubated for 5 min at 30 °C in the kinase buffer. The phosphorylation of PDHA was analyzed by western blot analysis.

The target of data set [11] is T3, PDHK1 (Homo sapiens, UniProt Q15118).
T3 construct: made in house; host or cells: Escherichia coli BL21(DE3)
T3 sequence (Q15118 29-436): as the sequence (Q15118 29-436) above
As to the kind of experiment: ATP-binding assay. To be noted: His-tagged PDHK1 on Ni-NTA beads, 37 °C. As to the method:
The cloned PDHK1 was expressed in Escherichia coli BL21(DE3). The overexpressed protein was purified using affinity chromatography and gel filtration chromatography. The purified His-tagged PDHK1 was bound to Ni-NTA beads in binding buffer (20 mM HEPES-K^+ (pH 7.2) and 0.05% BSA) at 4 °C. The Ni-NTA beads with bound His-tagged PDHK1 were washed with the binding buffer followed by incubation with [α-^32P]ATP, ATP, and Hu.A at 37 °C. The beads were then washed with wash buffer (PBS). The bead-bound PDHK1 protein was achieved by 250 mM imidazole, and its radioactivity was detected by liquid scintillation counting.

Data set [12] deals with DLD-1 cells. As to the kind of experiment: Lactate production assay. The class given is cell-based, human. Here is the method: Lactate in the cell culture medium was analyzed by a lactate fluorometric assay kit (Biovision, Milpitas, CA, USA) and measured using the Spectramax M2 microplate reader at 570 nm.
In data set [13] the test system is HSC-2. Set-up: method as in PMID 19952458. Conditions: read-out: IC50 against human cancer cell line; cited from earlier work.
Data set [14] deals with DLD-1 cells. As to the kind of experiment: O2 consumption assay. The class given is cell-based, human. Conditions: serum-free medium, 6 h. As to the method: The O2 consumption rate was determined using the Oxygen Consumption Rate Assay Kit (Cayman Chemical, Ann Arbor, MI, USA) following the manufacturer’s protocol. The fluorescence of the oxygen probe was measured using the Spectramax M2 microplate reader at wavelengths of 380/650 nm.

Data set [15] has as its system PDHK1-4. As to the kind of experiment: PDHK1-4 protein expression (western blot) in DLD-1 cells. The class given is cell-based, human. Conditions: serum-free medium, 4 h. As to the method: Figure 2 Hu.A reduced the PDHK1 activity and promoted oxidative phosphorylation (OXPHOS) in DLD-1 cells. (A) In vitro PDHK1 kinase assay was performed. (B, C) DLD-1 cells were treated with Hu.A in serum-free medium for 4 h. The levels of phosphorylated pyruvate dehydrogenase E1α subunit (PDHA) (B), and PDHK1-4 (C) were analyzed using western blot assay. PDHA (B) and GAPDH (C) were used as loading controls. (D) The intensity of bands (PDHK1-4/GAPDH) from three independent experiments was measured and indicated by mean ± SD. (E) DLD-1 cells were treated with Hu.A in serum-free medium for 6 h. O2 consumption rate was measured by using commercially available Oxygen Consumption Rate Assay Kit. (F) Lactate production was measured by lactate fluorometric assay kit (right panel). The data are shown as mean ± SD, respectively. **, p < 0.01 compared with control.
Western blotting assay was carried out as described previously. Briefly, equal amounts (20 μg) of the cell lysates were separated by sodium dodecyl sulfate–polyacrylamide gel electrophoresis and were transferred onto the nitrocellulose membrane (Hybond ECL; GE Healthcare). The membrane was incubated with specific antibodies. The bands of the target proteins were detected using ECL Plus reagent and ImageQuant LAS 4000 (GE Healthcare, Menlo Park, CA, USA).

For data set [16], the system named is HL-60. Also noted: method as in PMID 19952458. Conditions: read-out: IC50 against human cancer cell line; cited from earlier work.
For data set [17], the system named is A549. Also noted: method as in PMID 19952458. Conditions: read-out: IC50 against human cancer cell line; cited from earlier work.
For data set [18], the target named is T3, PDHK1. Conditions: cited from earlier work.
The target in data set [19] is T3, PDHK1. Conditions: read-out: IC50 for inhibiting PDHK1 activity; cited from earlier work.
Data set [20] concerns tumor growth. To be noted: JX06 is ref 12; cited from earlier work.

T2 sequence (Q15118 29-436): as above

Consider `CC1OC(OC2C(OC3CCC4(C)C(CCC5(C)C4CC=C4C6CC(C)(C)CCC6(C(=O)O)CCC45C)C3(C)C)OCC(O)C2O)C(O)C(OC2OCC(O)C(O)C2O)C1O` (stereo not drawn) [Hu.A, Huzhangoside A], for which the cytotoxic effect entry in [1] was “more than 80%”; in data set [2], “more than 80%”; in data set [3] (3 μM, 24 h), “more than 80%”; in data set [4] it was “more than 80%”; in data set [5], “more than 80%”. Moreover, the “cytotoxic effect of Hu.A after MitoTEMPO pre-treatment” value in data set [3] (DLD-1, MitoTEMPO 50 μM 1 h pre-treatment, then 3 μM Hu.A 6 h, serum-free) is given as “significantly reduced”. Further, the “levels of cleaved forms of caspase-3, -9, and PARP in tumor tissues” value in data set [6] (1 mg/kg, western blot) is on record as “increased”. Besides, the “growth of the allograft LLC cells (tumor volume and weight)” value in [6] (0.1, 0.5 and 1 mg/kg/day i.p., dose-dependent) is on record as “significantly suppressed”. Also, the “staining of Ki-67 in tumor tissues” value in data set [6] (immunohistochemistry, Hu.A-treated mice) is “reduced”. In [6] (western blot, Hu.A-treated mice), the “phosphor-PDHA levels in tumor tissues” value was “markedly decreased”. Besides, the IC50 in data set [7] is 11700 nM; in data set [13] it was 5700 nM; in [16], 2300 nM; in data set [17], 1500 nM. In addition, in [8], the “binding of PDHK and PDC E2 subunit” value is “did not significantly affect”. Besides, the Creatinine in data set [9] (0.1 mg/kg i.p.), in data set [9] (0.5 mg/kg i.p.) and in data set [9] (1 mg/kg i.p.) was under 0.17 mg/dL each time. The BUN is reported as 8.8 ± 0.9 mg/dL in data set [9] (0.1 mg/kg i.p.), 8.9 ± 0.6 mg/dL in [9] (0.5 mg/kg i.p.) and 8.4 ± 1.0 mg/dL in [9] (1 mg/kg i.p.). For the same molecule, the ALT was 16.7 ± 2.5 U/L in [9] (0.1 mg/kg i.p.), 19.2 ± 5.6 U/L in data set [9] (0.5 mg/kg i.p.) and 19.6 ± 3.1 U/L in data set [9] (1 mg/kg i.p.). The AST in data set [9] (0.1 mg/kg i.p.) is reported as 94.5 ± 41.0 U/L; in [9] (0.5 mg/kg i.p.), 87.5 ± 33.8 U/L; in data set [9] (1 mg/kg i.p.), 95.2 ± 43.1 U/L. Also, the “kinase activity of GST-PDHK1” value in data set [10] is listed as “significantly inhibited”. In addition, the “[α-32P]ATP-binding activity of PDHK1” value in data set [11] is “decreased”. Also, the “secretory lactate levels in media” value in data set [12] was “reduced”. Further, in data set [14], the O2 consumption rate result was “increased”. Also, the “protein levels of PDHK isozymes (PDHK1-4)” value in data set [15] is “did not significantly change”.
Consider `C[C@@H]1C[C@H]2O[C@@H]2/C=C\C=C\C(=O)Cc2c(Cl)c(O)cc(O)c2C(=O)O1` [radicicol], for which the “concentration administered to suppress the intracellular PDHK1 activity” value in data set [18] was 10 µM.
On to `S=C(SSC(=S)N1CCOCC1)N1CCOCC1` [JX06], for which, in [19], the IC50 was 49 nM. The “concentration required for inhibition of tumor growth in in vivo experiments” value in data set [20] was 40 to 80 mg/kg. Also, the “concentration administered to suppress the intracellular PDHK1 activity” value in [18] is 10 µM.
